Experimental data taken from patent US6451807B1, “Methods of treating sexual dysfunction in an individual suffering from a retinal disease, class 1 congestive heart failure, or myocardial infarction using a PDE5 inhibitor” (Lilly Icos, LLC., priority 1999, dated 2002).

Columns and labels:
[1] = tested on: healthy male volunteers; assay: Clinical pharmacology drug interaction study with short-acting nitrates (Example 5); format: in vivo, human
Experimental: This study was a randomized, double-blind, placebo-controlled, two-way crossover design clinical pharmacology drug interaction study that evaluated the hemodynamic effects of concomitant administration of a selective PDE5 inhibitor Study Drug (i.e., the compound of structural formula (I)) and short-acting nitrates on healthy male volunteers. In this study, the subjects received either the Study Drug at a dose of 10 mg or a placebo, daily for seven days. On the sixth or seventh day, the subjects received sublingual nitroglycerin (0.4 mg) while supine on a tilt table. The nitroglycerin was administered 3 hours after Study Drug dosing, and all subjects kept the nitroglycerin tablet under their tongue until it completely dissolved. The subjects were tilted to 70° head-up every 5 minutes for a total of 30 minutes with measurement of blood pressure and heart rate. There were no discontinuations among the twenty-two healthy male subjects (ages 19 to 60 years old) that entered this study.

[2] = tested on: patients in need thereof (erectile function); assay: Two randomized, double-blinded placebo controlled studies, daily and on demand dosing (Example 6); format: in vivo, human
Experimental: In two randomized, double-blinded placebo controlled studies, the compound of structural formula (I), at a range of doses in both daily dosing and for on demand therapy for sexual encounters and intercourse in the home setting, was administered to patients in need thereof.
Erectile function was assessed by the International Index of Erectile Function (IIEF) (Rosen et al., Urology, 49, pp. 822-830 (1997)), diaries of sexual attempts, and a global satisfaction question.

[3] = 10 mg daily for seven days, sublingual nitroglycerin 0.4 mg, preliminary analysis
[4] = 10 mg daily for seven days, preliminary analysis

CN1CC(=O)N2[C@H](c3ccc4c(c3)OCO4)c3[nH]c4ccccc4c3C[C@@H]2C1=O [Compound 5, (6R-trans)-6-(1,3-benzodioxol-5-yl)-2,3,6,7,12,12a-hexahydro-2-methylpyrazino[1′,2′:1,6]pyrido[3,4-b]indole-1,4-dione]
serious adverse events [1, 3]: no serious adverse events
tolerability [1, 3]: well tolerated
changes in laboratory safety assessments or 12-lead ECGs [1, 4]: no Study Drug-associated changes in laboratory safety assessments or 12-lead ECGs
most common adverse events [1, 4]: headache, dyspepsia, and back pain
effects on mean systolic blood pressure and on mean maximal nitroglycerin-induced decrease in systolic blood pressure ([1]; 10 mg daily, nitroglycerin 0.4 mg 3 hours after dosing, tilt table): minimal effects
impact on systolic blood pressure ([1]; human clinical studies, administered in conjunction with organic nitrates): minimal impact on systolic blood pressure
efficacy ([2]; 10 mg dose): fully efficacious
side effects ([2]; 10 mg dose): minimal side effects (no flushing and no reports of blue vision)
efficacy ([2]; doses from 5 to 20 mg): efficacious
flushing ([2]; doses from 5 to 20 mg): no flushing
vision abnormalities ([2]; doses from 5 to 20 mg): no reports of vision abnormalities
erectile function as assessed by all endpoints (IIEF, diaries of sexual attempts, global satisfaction question) ([2]; in vivo): significantly improved erectile function
erectile function ([2]; on demand and daily dose regimens, doses between 1 and 20 mg): significantly improved erectile function
